For the experiment, the system named is lysis of EA. In words: CH50 test of C5 proteins in 1.5% C5-depleted human sera with EA. It is filed as cell-based. As to conditions: 1.5% C5-depleted human sera supplemented with C5 protein. The protocol: Recombinant human C5 R885 variants (rhC5 R885C and rhC5 R885H) were prepared in-house ( Supplementary Material ). Their activities on complement activation were examined by the CH50 test using 1.5% C5-depleted human sera supplemented with C5 R885 variants. […] Other procedures and data analysis are described in Section 2.3.
Supplementary Figure 2. Determination of CH50 of the hemolysis by C5 from different sources. Wild type C5 purified from human sera (hC5 compTech) (Complement Technologies), recombinant C5 wild type (rhC5 WT), recombinant C5 variant R885C (rhC5 R885C), and recombinant C5 variant R885H (rhC5 R885H). Various concentrations of protein C5 were added to 1.5% C5-depleted human sera followed by incubation with EA (0.5×) in GVB++ buffer. All data were from 2 plates (duplicate in each plate).

For the substance “C5 wt: Wild-type human C5, purified from human sera or recombinant (rhC5 wt)”, the CH50 lay in the range of 0.2 to 0.3 nM. The value for “rhC5 R885C: Recombinant human C5 variant with single mutation R885C, prepared in-house” was 5.2 nM; that for “rhC5 R885H: Recombinant human C5 variant with single mutation R885H, prepared in-house” was 1.1 nM.
